Tests used:
[1] = test system: SH-SY5Y neuroblastoma cells; test: SH-SY5Y viability, MTS assay, 72 h; format: cell-based, human; conditions: 0.1-100 µM
Description: OC(=O)[C@H]1CNCC[C@@H]1S OC(=O)CCCCCCN1C=CN=C1
OC(=O)C1CCNCC1 N[C@]12C[C@H]1[C@@H](CC2)C(O)=O
OC(=O)C1=CCNCC1 N[C@H]1C[C@@H]1CC(O)=O
O[C@@H]1CNCC[C@H]1C(O)=O N[C@@H]1C[C@@H]1CC(O)=O
OC(=O)CCCC1=NC=CN1 N[C@H]1C[C@H]1CC(O)=O
OC(=O)\C=C\C1=NC=CN1 NC[C@H]1C[C@H]1C(O)=O
OC(=O)\C=C\C1=CNC=N1 NC[C@@H]1C[C@@H]1C(O)=O
OC(=O)\C=C\C1=CN=CN1 NC[C@@H]1C[C@H]1C(O)=O
OC(=O)CCC1=CNC=N1 NC[C@H]1C[C@@H]1C(O)=O
OC(=O)CCC1=CN=CN1 NC1=CC=C(C=N1)C(O)=O
OC(=O)CCN1C=CN=C1 NC1=NC=C(C=N1)C(O)=O
OC(=O)CCCC1=NC=CN1 NC(=N)N1CCC(CC1)C(O)=O
S2. IC50 determination at GAT3 stable GAT3-CHO, compound 9
Figure S1. IC 50 determination for compound 9. Data represent one of three independent experiments, each performed in three technical replicates.
S3. […]
The influence of compound 9 on viability of SH-SY5Y neuroblastoma cells was determined using Aqueous Non-Radioactive Cell Proliferation Assay. […] Upon adding MTS and following 2h incubation, cell viability was calculated and […]
The effect of compound 9 on viability and proliferation of SH-SY5Y was determined with CellTiter 96® Aqueous Non-Radioactive Cell Proliferation Assay (MTS, Promega, Madison, WI, USA). […] Next MTS was added in fresh medium and after 2h of incubation the absorbance was measured at 490 nm using a microplate reader EnSpire (PerkinElmer, Waltham, MA USA). All results were shown as mean ± SD calculated from two independent experiments. […]

hBGT1 E52A+Q299L = biological target: T1, hBGT1 E52A+Q299L (Homo sapiens, UniProt P48065, E52A/Q299L); test: [3H]GABA uptake assay, hBGT1 double mutant E52A+Q299L in tsA201 cells; format: cell-based
T1 construct: host or cells: tsA201 cells (transformed HEK293), transient expression
T1 sequence (P48065 1-614 E52A/Q299L): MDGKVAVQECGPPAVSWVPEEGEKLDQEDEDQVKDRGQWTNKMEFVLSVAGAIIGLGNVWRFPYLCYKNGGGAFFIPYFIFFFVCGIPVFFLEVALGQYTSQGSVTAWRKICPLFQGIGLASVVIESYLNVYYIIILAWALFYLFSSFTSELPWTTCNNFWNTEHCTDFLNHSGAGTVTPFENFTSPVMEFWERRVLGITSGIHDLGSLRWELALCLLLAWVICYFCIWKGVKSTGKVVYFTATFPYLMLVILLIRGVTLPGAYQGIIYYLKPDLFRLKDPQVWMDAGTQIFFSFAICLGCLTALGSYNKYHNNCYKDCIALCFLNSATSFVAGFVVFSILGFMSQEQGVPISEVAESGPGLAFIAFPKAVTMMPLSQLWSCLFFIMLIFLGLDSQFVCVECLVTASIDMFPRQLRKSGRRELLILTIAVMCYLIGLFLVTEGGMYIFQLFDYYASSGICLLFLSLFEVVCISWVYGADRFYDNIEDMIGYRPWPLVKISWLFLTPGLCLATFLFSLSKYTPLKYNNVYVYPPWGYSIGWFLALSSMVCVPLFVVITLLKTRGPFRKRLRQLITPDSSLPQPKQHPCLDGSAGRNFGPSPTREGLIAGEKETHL
Experimental: To validate the molecular modeling, particularly the crucial interactions with the Glu52 and Gln299 residues, the activity of compound 9 was tested on the following hBGT1 mutants: E52A, E52Y, Q299L, and the double mutant E52A+Q299L (Figure 5 and Table 1).[14]
The CHO cells were placed in 96-well plates (approximately 50,000 cells/well) for about 24 h before the experiment. […] After incubation, cells were washed 3 times with 100 μL/well ice-cold assay buffer, 150 μL/well MicroScint20 (PerkinElmer) was subsequently added before the plate was shaken for at least 1 h. The radioactivity of each well of the plate was measured on a TopCount NXT scintillation counter. […] Data presented are the pooled data of at least three independent experiments with three technical replicates if not stated otherwise in figure legends. Concentration–response curves were fitted by nonlinear regression to the sigmoidal concentration–response model with GraphPad Prism v 9.0.
The tsA201 cell line (a transformed HEK293 cell line) has been described previously and was cultured accordingly.[20] The tsA201 cells used for transient expression of hBGT1 mutants were transfected with DNA constructs (8 μg per 10 cm plate) using 40 μL of PolyFect transfection reagent according to the manufacturer’s protocol (Qiagen). […]

## NC12CC(C(=O)O)(C1)C2 [Compound 9]
[1]
  impact on SH-SY5Y viability: no impact
hBGT1 E52A+Q299L
  IC50: > 1000 µM
hBGT1 E52A+Q299L; E52A+Q299L vs wt
  activity at mutant compared with wild type hBGT1: no activity
